Values joined by “and” are separate entries in the source; they are usually repeats but may differ in a detail not shown here. Equal entries are not always repeated.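 Five concentrations, 48 hours, 96-well plates. GI50 marks 50% less growth. The concentration for full growth arrest is given as TGI.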
Assays:
Experiment in all cases: NCI anticancer screen, dose series, 48 h
[1] = tested on: A498 renal
[2] = tested on: A549 NSCLC
[3] = tested on: CAKI-1 renal
[4] = tested on: CCRF-CEM leukemia
[5] = tested on: HCC-2998 colon
[6] = tested on: HOP-92 NSCLC
[7] = tested on: LOX IMVI melanoma
[8] = tested on: NCI-H522 lung
[9] = tested on: SK-OV-3 ovarian
[10] = tested on: SW-620 colon

| Structure (SMILES) | TGI [1] [µM] | TGI [2] [µM] | TGI [3] [µM] | TGI [4] [µM] | TGI [5] [µM] | GI50 [6] | TGI [6] | GI50 [7] | TGI [7] [µM] | TGI [8] [µM] | TGI [9] [µM] | TGI [10] [µM] | GI50 [1] [µM] | GI50 [2] [µM] | GI50 [3] [µM] | GI50 [4] [µM] | GI50 [5] [µM] | GI50 [9] [µM] | GI50 [10] [µM] | GI50 [8] [µM] |
| --- | --- | --- | --- | --- | --- | --- | --- | --- | --- | --- | --- | --- | --- | --- | --- | --- | --- | --- | --- | --- |
| CC(=O)OCC1OC(n2c(-c3ccccc3)cc(-c3ccco3)c(C#N)c2=O)C(OC(C)=O)C(OC(C)=O)C1OC(C)=O (stereo unspecified) | > 100 | > 100 | > 100 | > 100 | > 100 | 9.2 µM and 50.8 µM | 21.8 µM and > 100 µM | 2.23 µM and 14.6 µM | > 100 | > 100 | > 100 | > 100 |  |  |  |  |  |  |  |  |
| CC(=O)O[C@H]1C(N(C)C(=O)c2ccccc2)CC[C@]2(C)C3CC[C@@]4(C)C(CC(O)[C@@H]4C(C)N(C)C)[C@@H]3CCC12 (stereo partly specified) | > 100 | > 100 | > 100 | > 100 | > 100 |  | > 100 µM |  | > 100 | > 100 | > 100 | > 100 |  |  |  |  |  |  |  |  |
| NC(N)=N/N=C(/c1nc2ccc([N+](=O)[O-])cc2[nH]c1=O)C(O)c1ccco1 (stereo unspecified) | > 100 | > 100 | > 100 | > 100 | > 100 |  | > 100 µM |  | > 100 | > 100 | > 100 | > 100 |  |  |  |  |  |  |  |  |
| CC1=C2C(O)C(C(C)CO)C(O)CC2(C)C(O)CC1 (stereo unspecified) | > 100 | > 100 | > 100 | > 100 | > 100 |  | > 100 µM |  | > 100 | > 100 | > 100 | > 100 |  |  |  |  |  |  |  |  |
| O=C(Nc1ccccc1C(F)(F)F)c1cccc(NC2=C(Cl)C(=O)N(Cc3ccccc3)C2=O)c1 | 37 | > 77.8 | > 67.2 | 31.7 | 50.8 | 26.3 µM | > 100 µM | 5.87 µM | 36.9 | 0.0672 | > 100 | > 100 | 11.3 | 28.2 | 21.1 | 10.4 | 21.5 | 38.9 | 22 |  |
| COc1cc(OC2OC(C)C(O)C(O)C2O)cc2oc(-c3ccc(O)cc3)c(CC=C(C)C)c(=O)c12 (stereo unspecified) | 84.2 | 68.5 | 40.7 | 31.8 | 40.8 | 12.4 µM | 54.8 µM | 10.4 µM | 23 | 39.8 | 45.4 | 44 | 29.8 | 22.8 | 14.1 | 5.97 | 16.6 | 20.8 | 19.7 | 13 |
| NC(=O)c1c[se]c(C2OC(CO)C(O)C2O)n1 (stereo unspecified) | > 100 | > 100 | > 100 | > 100 | > 100 |  | > 100 µM |  | > 100 | > 100 | > 100 | > 100 |  |  |  |  |  |  |  |  |
| C=CC(=O)N1CCCC(n2nc(-c3ccc(Oc4ccccc4)cc3)c3c(N)ncnc32)C1 (stereo unspecified) | 2.08 | 26 | 10.6 | 42.6 | 30.8 | 1.57 µM | 10.5 µM | 4.26 µM | 19.1 | 9.31 | 15.8 | 33.4 | 0.124 | 11.9 | 0.107 | 8.02 | 16 | 0.0216 | 16.1 | 0.0578 |
| Clc1nc(Oc2ccccc2)nc(-c2cn(-c3ccccc3)c3ccccc23)n1 | > 100 | > 67.4 | 12.9 | 20.3 | 27.3 | 4.07 µM | 20.7 µM | 2.44 µM | 5.93 | 3.88 | 40.3 | 9.24 | > 47.6 | 27.4 | 5.69 | 3.99 | 13.8 | 18.9 | 2.92 | 1.88 |
| CCCCCCNC(=O)C1=C(C)NC(C)=C(C(=O)NCCCCCC)C1 | > 100 | > 100 | > 100 | > 100 | > 100 |  | > 100 µM |  | > 100 | > 100 | > 100 | > 100 |  |  |  |  |  |  |  |  |
| COc1cc(OC)c(/C=C/c2ccc3ccccc3[n+]2C)c(OC)c1 | 5.42 | 13.9 | > 49.2 | 6.49 | 5.6 | 0.951 µM | 4.51 µM | 1.33 µM | 3.99 | 6.25 | 26 | 11.3 | 0.535 | 0.748 | 8.55 | 0.697 | 0.811 | 1.37 | 0.902 | 1.14 |
| Oc1ccc(N=Nc2ccc(Cl)cc2)cc1 | 41 | 31.3 | 36.6 | > 100 | 29.8 |  | 29.2 µM |  | 24.6 | 25 | 47.3 | > 100 |  |  |  |  |  |  |  |  |
| CC(C)c1ccc(Cc2cnc(NC(=O)c3cc(Br)cs3)s2)cc1 | 4.67 | > 100 | > 100 | > 100 | > 100 | 5.51 µM | 87.5 µM | 5.35 µM | > 100 | 5.76 | 95.7 | > 100 | 0.242 | 3.65 | 1.16 | 4.08 | 3.65 | 6.06 | 2.98 | 1.48 |
| CCOc1ccccc1NC(=O)/C=C1\NC(=O)CS1 | > 100 | > 100 | > 100 | > 100 | > 100 |  | > 100 µM |  | > 100 | > 100 | > 100 | > 100 |  |  |  |  |  |  |  |  |
| COC(=O)CCC/C=C\C[C@H]1C=CC(=O)/C1=C/C[C@@H](O)CCc1cccc(C(F)(F)F)c1 | 18.2 | 12.2 | 14.7 | 12 | 3.35 | 3.1 µM | 7.94 µM | 0.955 µM | 2.24 | 5.57 | 16.5 | 10.6 | 5.93 | 3.55 | 3.89 | 1.09 | 1.83 | 4.94 | 3.28 | 2.02 |
| COC1=CC23C=CC1[C@@H](c1ccccc1)C2=C(C)C(=O)N3C(=O)NC1CCCCC1 (stereo partly specified) | 64.1 | 79.8 | 45.1 | 72.5 | 52 |  | 47.5 µM |  | 31.2 | 41.3 | 93.5 | 47.8 |  |  |  |  |  |  |  |  |
